System: metastatic castration-resistant prostate cancer (mCRPC) patients previously treated with docetaxel and who failed a prior androgen signaling targeted inhibitor
Test: Randomized open-label clinical study, cabazitaxel vs abiraterone acetate or enzalutamide: imaging-based PFS, OS, PFS, PSA and tumor response
Assay type: in vivo, human
Conditions: for Deaths: at cut-off date; for rPFS, HR: cabazitaxel vs abiraterone or enzalutamide
Source text: Imaging-based progression-free survival (rPFS): defined as the time from randomization until the occurrence of one of the following events: objective tumor progression (Response Evaluation Criteria in Solid Tumors, version 1.1), progression of bone lesions (Prostate Cancer Working Group 2) or death due to any cause.
Overall survival (OS): defined as the time from the date of randomization to the date of death due to any cause.
Progression-free survival (PFS) defined as the time from randomization until the occurrence of objective tumor progression (using Response Evaluation Criteria in Solid Tumors, version 1.1), or progression of bone lesions (using Prostate Cancer Working Group 2 criteria), or symptomatic progression (defined as the development of urinary or bowel symptoms related to prostate cancer or requiring a change of anticancer therapy), or pain progression, or death due to any cause.
PSA response: defined as a decline of serum PSA from baseline of ≥50% with confirmation from a second PSA value measured at least 3 weeks apart. Best PSA response was defined using the Prostate Cancer Working Group criteria 2 definition.
Tumor response (TR): was measured using Response Evaluation Criteria in Solid Tumors, version 1.1 in patients with measurable disease.
A clinical study was performed wherein patients received cabazitaxel versus an Androgen Receptor (AR)-targeted agent (abiraterone acetate or enzalutamide) in metastatic castration-resistant prostate cancer (mCRPC) patients previously treated with docetaxel and who failed a prior androgen signaling pathway inhibitor within 12 months.
For patients in Arm A, cabazitaxel 25 mg/m^2 was administered intravenously over 1 hour every 3 weeks along with oral prednisone 10 mg given daily. Primary prophylactic granulocyte-colony stimulating factor (G-CSF) was required at each cycle for all patients in the cabazitaxel arm
For patients in Arm B, abiraterone acetate was administered orally at 1000 mg once daily along with oral prednisone 5 mg given twice daily or enzalutamide was administered orally at 160 mg once daily continuously. Abiraterone acetate was administered to patients who had received enzalutamide prior to study entry. Enzalutamide was administered to patients who received prior abiraterone acetate.
Each patient was treated until imaging-based disease progression, unacceptable toxicity, or patient's refusal of further study treatment. All patients were followed when on study treatment and after completion of study treatment during follow-up period until death, the study cut-off date, or withdrawal of patients' consent whichever came first.
Eligible patients were randomized to receive either cabazitaxel or an AR pathway inhibitor (abiraterone acetate or enzalutamide; dependent on the use of a previous androgen signaling targeted inhibitor) in a 1:1 ratio. Stratification criteria were Eastern Cooperative Oncology Group performance status, a 5-point scale where higher numbers indicate greater disability (0-1 vs. 2), and time to disease progression (≤6 months vs. >6-12 months) and timing (before vs. after docetaxel) with previous alternative AR pathway inhibitors.
Cabazitaxel 25 mg/m^2, was administered intravenously over 1 hour every 3 weeks with oral prednisone 10 mg daily. Premedication included an antihistamine, glucocorticoid (dexamethasone 8 mg or equivalent), and histamine 2 receptor antagonist. Antiemetic prophylaxis was administered at physician's discretion. Primary prophylactic granulocyte-colony stimulating factor was required during each cycle of cabazitaxel. Patients received either abiraterone acetate (1000 mg orally once daily and oral prednisone 5 mg twice daily) or enzalutamide (160 mg orally once daily) continuously. A treatment cycle was 3 weeks in both arms. Abiraterone acetate was given to patients who previously received enzalutamide before study entry. Enzalutamide was given to patients who previously received abiraterone acetate. […]

[1] = cabazitaxel vs androgen signaling targeted inhibitor

Compound: CO[C@H]1C(=O)[C@]2(C)[C@@H](OC)C[C@H]3OC[C@@]3(OC(C)=O)[C@H]2[C@H](OC(=O)c2ccccc2)[C@]2(O)C[C@H](OC(=O)[C@H](O)[C@@H](NC(=O)OC(C)(C)C)c3ccccc3)C(C)=C1C2(C)C [Cabazitaxel, 4α-acetoxy-2α-benzoyloxy-5β,20-epoxy-1p-hydroxy-7β,10β-dimethoxy-9-oxo-11-taxen-13α-yl (2R,3S)-3-tert-butoxycarbonylamino-2-hydroxy-3-phenylpropionate]
- Deaths: 54.3%
- Deaths (number): 70
- Radiographic progression-free survival, hazard ratio, post hoc (cabazitaxel vs abiraterone acetate): 0.44
- Overall survival, HR in multivariate analysis (cabazitaxel vs abiraterone/enzalutamide, in presence of low hemoglobin, high baseline NLR, high PSA): 0.63
- Imaging-based progression-free survival, hazard ratio [1]: 0.54
- Overall survival, hazard ratio [1]: 0.64
- Progression-free survival, hazard ratio [1]: 0.52
- Radiographic progression-free survival, hazard ratio, post hoc (cabazitaxel vs enzalutamide): 0.57
- Reduction of the risk of death from any cause (compared with abiraterone acetate or enzalutamide, all patients): 36%
- Confirmed PSA reduction ≥50% from baseline (evaluable patients): (35.7) %
- Confirmed PSA reduction ≥50% from baseline (evaluable patients, listed as cabazitaxel): 35.7%
- Radiographic progression-free survival, treatment effect hazard ratio, multivariate (fixed model MV-1): 0.54
- Overall survival, median (from randomization): 13.6 months
- Median OS from time of 1st LET (human, in vivo): 36.4 months
- Median OS from time of 2nd LET (human, in vivo): 24.2 months
- Median OS from time of 3rd LET (human, in vivo): 13.6 months
- Median OS from time of mCRPC diagnosis (human, in vivo): 40.9 months
- Median OS from time of metastatic disease diagnosis (human, in vivo): 54.7 months
- Progression-free survival, median (human, in vivo): 4.4 months
- Treatment discontinuation for disease progression (human, in vivo): 43.7%
- Imaging-based progression-free survival, median (intention-to-treat population): 8.0 months
- Overall response rate (measurable disease): 36.5%
- Tumor response, complete (measurable disease): 0 n
- Tumor response, progressive disease (measurable disease): 15 n
- Confirmed PSA reduction ≥50% from baseline (number of patients, evaluable 115 and 111): 41
- rPFS, HR (patients 70 years or older): 0.58
- rPFS, HR (patients aged <70 years): 0.47
- Radiographic progression-free survival, treatment effect hazard ratio, multivariate (stepwise model MV-2): 0.50
- Radiographic progression-free survival, treatment effect hazard ratio, multivariate (stepwise model MV-3): 0.52
- Reduction in the risk of death (vs abiraterone or enzalutamide, both in patients ≥70 and <70 years): 34%
